Here are results for 1 compound from patent publication US12084461B2, “Bicyclic heteroaryl derivatives” (Hoffmann-La Roche Inc., priority 2018, dated 2024).

The structures appear in SMILES notation.

The subject of this assay is γ-secretase. As to the kind of experiment: Cellular γ-secretase assay (inhibition of Aβ42 secretion, AlphaLisa). The following applies: human neuroglioma H4 cells overexpressing human APP695 Swedish double mutation, 24 h compound incubation. Format: cell-based. The protocol: Human neuroglioma H4 cells overexpressing human APP695 with the Swedish double mutation (K595N/M596L) were plated at 30,000 cells/well/100 μL in 96-well plates in IMDM containing 10% FCS, 0.2 mg/L Hygromycin B and incubated at 37° C., 5% CO2. 3-4 h post plating, compounds are a diluted in media and 50 μL is added as […] concentrate to achieve the final concentration. Compound incubation is performed for 24 h. Final doses typically range from 4 μM down to 0.0013 μM in half-log steps resulting in an eight-point dose response curve.
Appropriate controls using vehicle only and reference compound were applied to this assay. The final concentration of Me2SO was 0.4%.
After incubation at 37° C., 5% CO2, the supernatant was subjected to quantification of secreted Aβ42 by the means of an AlphaLisa assay kit (Human Amyloid beta 1-42 Kit: Cat # AL203C, Perkin Elmer). 20 μL of the cell culture supernatant was transferred to an assay plate. Then 10 μL, of a mixture of the AlphaLisa coupled capture antibody and the biotinylated detection antibody was added and incubated for 3 h at RT while softly shaking the assay plate. After a further addition of 20 μL of the Donor beads the assay plate was incubated for 30 min at RT and constant shaking without exposure to direct light. The assay plate was then read on a Paradigm AlphaLisa Reader using the build-in program with excitation at 680 nm and emission at 570 nm. The measured signals were then used to calculate IC50 values for inhibition of Aβ42 secretion by nonlinear regression fit analysis using XLfit 5.3 software (from IDBS company).
For orientation: Bead proximity is the source of the signal in Alpha formats.

For orientation: IC50 means the concentration that inhibits the measured activity by half. Low values mean greater potency in that assay, high ones weaker potency in that assay.

The compound `COc1cc(N2C[C@H]3CC[C@@H](C2)[C@@H]3Nc2nc3n(n2)CCCO[C@@H]3c2ccc(F)c(F)c2F)ccn1` [Example 37, (9R)—N-[(1R,5S)-3-(2-methoxy-4-pyridyl)-3-azabicyclo[3.2.1]octan-8-yl]-9-(2,3,4-trifluorophenyl)-5,6,7,9-tetrahydro-[1,2,4]triazolo[5,1-c][1,4]oxazepin-2-amine] gave an IC50 of 15.7 nM.
